From patent publication US12216122B2, “Compositions and methods relating to detection, inhibition, and imaging of indoleamine 2,3-dioxygenase 1 (IDO1)” (Regeneron Pharmaceuticals, Inc., priority 2019, dated 2025)
Like-named read-outs stand apart in the source and are kept apart here. Numbered stars: 1 amine (or outer) side, 2 acyl side, 3 side chain; on linkers, the order of the positions; unused ones are H or OH. Bridge positions count the residues as written; N and C are the ends. Square brackets hold non-standard residues; d marks the D form. Triazole bridges read from a SMILES are 1,4-linked. Ends that are not written are not given here. Peptide text beside a SMILES is read from it. * marks the point of attachment. ξ: configuration not given here. Biotinyl(3aR,4R,6aS) = O=C1N[C@@H]2[C@@H](CS[C@@H]2CCCCC(=O)*)N1; NH(CH2CH2O)5CH2CO = O=C(COCCOCCOCCOCCOCCN[*:1])[*:2]; Biotinyl(4ξ) = O=C1N[C@H]2CSC(CCCCC(=O)*)[C@H]2N1; X6 = O=C([C@@H](Cc1ccc(Oc2ccccc2)cc1)N[*:1])[*:2]; Biotin = O=C1N[C@H]2[C@H](CS[C@H]2CCCCC(=O)*)N1; dTrp(1-Me) = Cn1cc(C[C@@H](N)C(=O)O)c2ccccc21; NMeLys(N3) = CN[C@@H](CCCCN=[N+]=[N-])C(=O)O; X1 = O=C(CSc1nonc1/C(=N/O)Nc1ccc(F)c(Br)c1)*; Trp(1-Me) = Cn1cc(C[C@H](N)C(=O)O)c2ccccc21; X5 = O=C1N[C@@H]2CSC(CCCCC(=O)*)[C@@H]2N1; PEG8 = NCCOCCOCCOCCOCCOCCOCCOCCOCCC(=O)O; dPhe(4-Me) = Cc1ccc(C[C@@H](N)C(=O)O)cc1; Lys(N3) = [N-]=[N+]=NCCCC[C@H](N)C(=O)O; Phe(4-F) = N[C@@H](Cc1ccc(F)cc1)C(=O)O; X4 = O=C1NC2CS[C@@H](CCCCC(=O)*)C2N1; PEG6 = NCCOCCOCCOCCOCCOCCOCCC(=O)O; dTle = CC(C)(C)[C@@H](N)C(=O)O; dNMeV = CN[C@@H](C(=O)O)C(C)C; PEG4 = NCCOCCOCCOCCOCCC(=O)O; AEEEA = NCCOCCOCCOCC(=O)O; Pra = C#CC[C@H](N)C(=O)O

Legend:
[1] = biological target: T1, recombinant human IDO1 (Homo sapiens, UniProt P14902); test: IDO1 Fluorogenic Inhibitor Screening Assay (enzyme inhibition); type: biochemical
T1 construct: purchased BPS Biosciences 72037
Method: The IDO1 Fluorogenic Inhibitor Screening Assay Kit (72037, BPS Biosciences) was used to measure the enzyme inhibition of human IDO1 in the presence of macrocyclic peptide ligands. IDO1 catalyzes the conversion of the essential amino acid L-tryptophan (L-Trp) to N-formylkynurenine (NFK). In the assay, the test inhibitor and enzyme were added to a sample containing L-Trp substrate. After incubation for 1 h at room temperature, 20 μL Fluorescence Solution was added and incubated at 37° C. for 4 h to produce a fluorescent product. Activity was measured by reading sample fluorescence at λ=510 nm following excitation of the reaction product at λ=400 nm.

[2] = biological target: T2, His-tagged IDO1 human recombinant protein (Homo sapiens, UniProt P14902); test: IDO1 ELISA (Affinity Assay): sandwich ELISA, biotinylated ligand immobilized on NEUTRAVIDIN plate; type: binding
T2 construct: purchased BPS Biosciences 71182
Method: Protocol: A black 96-well NEUTRAVIDIN® Coated High Binding Capacity plate (15510, Pierce) was coated with 2 μM biotinylated macrocyclic peptide ligand in TBS (25 mM Tris-HCl, 150 mM NaCl, pH 7.6) for 2 h at room temperature. The plate was aspirated and then washed with Wash Buffer (0.05% (v/v) TWEEN® 20 in PBS, 6×). His-tagged IDO1 human recombinant protein (71182, BPS Biosciences) was serially diluted in Wash Buffer (from 200 to 0 nM) and incubated in the designated microwells for 1 h at room temperature. Microwells were aspirated and subsequently washed with Wash Buffer (11×). To detect the bound IDO1 protein, Alkaline Phosphatase (AP)-conjugated Anti-6×HIS TAG® antibody [HIS-1] (ab49746, Abcam) was prepared at 1:10,000 dilution and added to the microwells for 1 h at room temperature. The plate was aspirated and washed with Wash Buffer (5×). ATTOPHOS® AP Fluorescent Substrate System (S1000, Promega) was employed to develop the microwells. Using an excitation wavelength of 430 nm, fluorescent emission at 535 nm was recorded by Beckman Coulter DTX880 photometer. Titration curves were fit using a four-parameter regression curve fitting program to determine EC50 values.
For these assays, a dilution series of His-tagged IDO1 human recombinant protein was captured using the macrocyclic peptide ligands immobilized on a NEUTRAVIDIN®-coated plate. […] The sequences of the peptide ligands are listed in Table 1, where D-amino acids are denoted in lowercase, Me-Trp=1-methyl-L-tryptophan, and F-Phe=4-fluoro-L-phenylalanine. Chemical structures are shown below Table 1.
The D-alanine substituted, biotin-PEG3-modified macrocycles were tested in the IDO1 ELISA (Affinity assay). For these assays, a dilution series of His-tagged IDO1 human recombinant protein was captured using macrocycles immobilized on a NEUTRAVIDIN®-coated plate.

[3] = N-methylated heterobiligands, PEG6 linker, read-out: IC50
[4] = Table 15, read-out: Inhibition Recombinant IDO1 IC50
[5] = 2 μM biotinylated macrocycle immobilized, human IDO1 titrated 200 to 0 nM, read-out: EC50, sandwich ELISA for human IDO1 protein against biotin-PEG3-modified macrocycle

T2 sequence (P14902 whole entry): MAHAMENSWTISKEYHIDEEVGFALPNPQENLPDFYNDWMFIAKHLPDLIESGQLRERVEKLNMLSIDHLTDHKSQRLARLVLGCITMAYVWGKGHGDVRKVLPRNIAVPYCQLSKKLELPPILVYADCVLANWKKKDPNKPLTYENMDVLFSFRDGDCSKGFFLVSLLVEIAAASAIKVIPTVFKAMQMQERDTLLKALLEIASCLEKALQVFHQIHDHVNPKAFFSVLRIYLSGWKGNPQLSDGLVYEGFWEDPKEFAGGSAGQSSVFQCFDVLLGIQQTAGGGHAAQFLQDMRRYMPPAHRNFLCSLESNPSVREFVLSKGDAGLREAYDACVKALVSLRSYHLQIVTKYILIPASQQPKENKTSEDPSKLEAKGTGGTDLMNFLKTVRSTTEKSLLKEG
T1 sequence (P14902 whole entry): as above

## CC(C)[C@H]1NC(=O)[C@@H](Cc2ccc(O)cc2)NC(=O)[C@@H](Cc2c[nH]c3ccccc23)NC(=O)[C@@H](NC(=O)CNC(=O)CNC(=O)CSc2nonc2/C(=N/O)Nc2ccc(F)c(Br)c2)Cc2cn(nn2)CCCC[C@@H](C(N)=O)NC(=O)[C@@H](Cc2ccc(O)cc2)NC(=O)[C@@H](C)NC1=O [Deprotected-Inh-Gly2-wyvay] (X1-GG[Pra][dW][dY][dV][dA][dY][Lys(N3)]-NH2; triazole 3-9)
[1]
  IDO1 inhibition potency relative to the small molecule (Inh) alone, in words: less active than the small molecule alone

## N=C(N)NCCC[C@H]1NC(=O)[C@@H](Cc2ccc(O)cc2)NC(=O)[C@@H](Cc2c[nH]c3ccccc23)NC(=O)[C@@H](NC(=O)CCOCCOCCOCCOCCNC(=O)CSc2nonc2/C(=N/O)Nc2ccc(F)c(Br)c2)Cc2cn(nn2)CCCC[C@@H](C(N)=O)NC(=O)[C@@H](Cc2ccc(O)cc2)NC1=O [Inh-PEG4-wyry] ({X1-PEG4}-[Pra][dW][dY][dR][dY][Lys(N3)]-NH2; triazole 1-6)
[1]
  IDO1 inhibition potency relative to the small molecule (Inh) alone, in words: equal in potency

## CC(C)[C@H]1NC(=O)[C@@H](Cc2ccc(O)cc2)NC(=O)[C@@H](Cc2c[nH]c3ccccc23)NC(=O)[C@@H](NC(=O)COCCOCCOCCOCCOCCNC(=O)CSc2nonc2/C(=N/O)Nc2ccc(F)c(Br)c2)Cc2cn(nn2)CCCC[C@@H](C(N)=O)NC(=O)[C@@H](Cc2ccc(O)cc2)NC(=O)[C@@H](C)NC1=O [Inh-PEG5-wyvay] (X1-[NH(CH2CH2O)5CH2CO][Pra][dW][dY][dV][dA][dY][Lys(N3)]-NH2; triazole 2-8)
[1]
  IDO1 inhibition potency relative to the small molecule (Inh) alone, in words: less active than the small molecule alone

## CC(C)[C@@H]1C(=O)N[C@H](C)C(=O)N[C@H](Cc2ccc(O)cc2)C(=O)N[C@H](C(N)=O)CCCCn2cc(nn2)C[C@H](NC(=O)CCOCCOCCOCCOCCOCCOCCNC(=O)CSc2nonc2/C(=N/O)Nc2ccc(F)c(Br)c2)C(=O)N[C@H](Cc2c[nH]c3ccccc23)C(=O)N[C@H](Cc2ccc(O)cc2)C(=O)N1C [Inh-PEG6-wy(N-Me-v)ay] ({X1-PEG6}-[Pra][dW][dY][dNMeV][dA][dY][Lys(N3)]-NH2; triazole 1-7)
[1]; [3]
  IC50: 1460 nM
[1]; [4]
  IC50: 1460 nM

## CC(C)[C@H]1NC(=O)[C@@H](Cc2ccc(O)cc2)NC(=O)[C@@H](Cc2c[nH]c3ccccc23)NC(=O)[C@@H](NC(=O)CCOCCOCCOCCOCCOCCOCCNC(=O)CSc2nonc2/C(=N/O)Nc2ccc(F)c(Br)c2)Cc2cn(nn2)CCCC[C@@H](C(N)=O)N(C)C(=O)[C@@H](Cc2ccc(O)cc2)NC(=O)[C@@H](C)NC1=O [Inh-PEG6-wyvay(N-Me)] ({X1-PEG6}-[Pra][dW][dY][dV][dA][dY][NMeLys(N3)]-NH2; triazole 1-7)
[1]; [3]
  IC50: 622 nM
[1]; [4]
  IC50: 622 nM

## N=C(N)NCCC[C@H]1NC(=O)[C@@H](Cc2ccc(O)cc2)NC(=O)[C@@H](Cc2c[nH]c3ccccc23)NC(=O)[C@@H](NC(=O)CCOCCOCCOCCOCCOCCOCCOCCOCCNC(=O)CSc2nonc2/C(=N/O)Nc2ccc(F)c(Br)c2)Cc2cn(nn2)CCCC[C@@H](C(N)=O)NC(=O)[C@@H](Cc2ccc(O)cc2)NC1=O [Inh-PEG8-wyry] ({X1-PEG8}-[Pra][dW][dY][dR][dY][Lys(N3)]-NH2; triazole 1-6)
[1]
  IDO1 inhibition potency relative to the small molecule (Inh) alone, in words: significantly less potent than Inh alone

## C[C@H]1NC(=O)[C@@H](Cc2ccccc2)NC(=O)[C@@H](CCCNC(=N)N)NC(=O)[C@@H](Cc2ccccc2)NC(=O)[C@@H](NC(=O)COCCOCCOCCNC(=O)CCCCC2SC[C@@H]3NC(=O)N[C@H]23)Cc2cn(nn2)CCCC[C@@H](C(N)=O)NC(=O)[C@@H](CO)NC1=O (stereo partly shown) [frfas, Biotin-PEG3-Cy(frfas)] ({Biotinyl(4ξ)-AEEEA}-[Pra][dF][dR][dF][dA][dS][Lys(N3)]-NH2; triazole 1-7)
[2]
  Binding to human IDO1 by ELISA, in words: weakest binding to IDO1

## CC(C)C[C@H]1NC(=O)[C@@H](NC(=O)COCCOCCOCCNC(=O)CCCCC2SC[C@H]3NC(=O)N[C@@H]23)Cc2cn(nn2)CCCC[C@@H](C(N)=O)NC(=O)[C@H](Cc2ccc(F)cc2)NC(=O)[C@H](Cc2cn(C)c3ccccc23)NC(=O)[C@@H](Cc2ccccc2)NC1=O (stereo partly drawn) [lf(Me-Trp)(F-Phe), Biotin-PEG3-Cy(lf(Me-Trp)(F-Phe))] ({X5-AEEEA}-[Pra][dL][dF][Trp(1-Me)][Phe(4-F)][Lys(N3)]-NH2; triazole 1-6)
[2]
  Binding to human IDO1 by ELISA, in words: slight decrease in binding affinity

## Cn1cc(C[C@H]2NC(=O)[C@@H](CCCNC(=N)N)NC(=O)[C@@H](Cc3ccccc3)NC(=O)[C@@H](CO)NC(=O)[C@@H](CC(N)=O)NC(=O)[C@@H](NC(=O)COCCOCCOCCNC(=O)CCCC[C@@H]3SCC4NC(=O)NC43)Cc3cn(nn3)CCCC[C@@H](C(N)=O)NC2=O)c2ccccc21 (stereo partly shown) [nsfr(Me-Trp), biotin-PEG3-Cy(nsfr(Me-Trp))] ({X4-AEEEA}-[Pra][dN][dS][dF][dR][dTrp(1-Me)][Lys(N3)]-NH2; triazole 1-7)
[2]; [5]
  EC50: 124 nM
[2]; Example 9, read-out: Binding affinity (EC50) of prioritized Epitope 1 hits
  EC50: 124 nM

## N=C(N)NCCC[C@H]1NC(=O)[C@H](Cc2ccc(F)cc2)NC(=O)[C@@H](Cc2c[nH]cn2)NC(=O)[C@@H](CO)NC(=O)[C@@H](CC(N)=O)NC(=O)[C@@H](NC(=O)COCCOCCOCCNC(=O)CCCC[C@H]2SC[C@H]3NC(=O)N[C@H]32)Cc2cn(nn2)CCCC[C@@H](C(N)=O)NC1=O [nsh(F-Phe)r, biotin-PEG3-Cy(nsh(F-Phe)r)] ({Biotinyl(3aR,4R,6aS)-AEEEA}-[Pra][dN][dS][dH][Phe(4-F)][dR][Lys(N3)]-NH2; triazole 1-7)
[2]; [5]
  EC50: 68 nM

## NC(=O)[C@@H]1CCCCn2cc(nn2)C[C@H](NC(=O)COCCOCCOCCNC(=O)CCCC[C@@H]2SC[C@@H]3NC(=O)N[C@@H]32)C(=O)N[C@H](CO)C(=O)N[C@H](Cc2c[nH]c3ccccc23)C(=O)N[C@H](Cc2c[nH]c3ccccc23)C(=O)N[C@@H](Cc2ccc(F)cc2)C(=O)N1 [sww(F-Phe), Biotin-PEG3-Cy(sww(F-Phe))] ({Biotin-AEEEA}-[Pra][dS][dW][dW][Phe(4-F)][Lys(N3)]-NH2; triazole 1-6)
[2]
  Binding to human IDO1 by ELISA, in words: superior to the other 4-mers generated

## CC(=O)N[C@H]1Cc2cn(nn2)CCCC[C@@H](C(N)=O)NC(=O)[C@@H](Cc2ccc(C)cc2)NC(=O)CNC(=O)[C@@H](C(C)(C)C)NC(=O)[C@@H](Cc2ccc(Oc3ccccc3)cc2)NC(=O)[C@@H](Cc2c[nH]c3ccccc23)NC1=O [w(Ph-Tyr)(Me-Val)G(Me-Phe)] (Ac-[Pra][dW][X6][dTle]G[dPhe(4-Me)][Lys(N3)]-NH2; triazole 1-7)
[2]; read-out: Binding affinity (EC50)
  EC50: 18 nM

## C[C@H]1NC(=O)[C@@H](CCCNC(=N)N)NC(=O)[C@@H](Cc2c[nH]c3ccccc23)NC(=O)[C@@H](NC(=O)COCCOCCOCCNC(=O)CCCC[C@H]2SC[C@H]3NC(=O)N[C@H]32)Cc2cn(nn2)CCCC[C@@H](C(N)=O)NC(=O)[C@@H](Cc2ccc(O)cc2)NC1=O [wray, Biotin-PEG3-Cy(wray)] ({Biotinyl(3aR,4R,6aS)-AEEEA}-[Pra][dW][dR][dA][dY][Lys(N3)]-NH2; triazole 1-6)
[2]
  Binding to human IDO1 by ELISA, in words: less potent binders

## C[C@H]1NC(=O)[C@@H](CCCNC(=N)N)NC(=O)[C@@H](Cc2ccc(O)cc2)NC(=O)[C@@H](NC(=O)COCCOCCOCCNC(=O)CCCC[C@H]2SC[C@H]3NC(=O)N[C@H]32)Cc2cn(nn2)CCCC[C@@H](C(N)=O)NC(=O)[C@@H](Cc2ccc(O)cc2)NC1=O [yray, Biotin-PEG3-Cy(yray)] ({Biotinyl(3aR,4R,6aS)-AEEEA}-[Pra][dY][dR][dA][dY][Lys(N3)]-NH2; triazole 1-6)
[2]
  Binding to human IDO1 by ELISA, in words: less potent binders

## Inh-PEG6-wyvay ([dW][dY][dV][dA][dY]; also: IDO1 inhibitor via PEG6 linker)
[1]
  IDO1 inhibition potency relative to the small molecule (Inh) alone, in words: an order of magnitude more potent than the small molecule

## PEG4
[1]
  IDO1 inhibition potency relative to the small molecule (Inh) alone, in words: less active than the small molecule alone
